Laboratory results as given in patent US11952387B2, “Bicyclic heteroaromatic ring derivative” (priority 2018, dated 2024).

The molecules below were run on HRV14 (assay: Inhibitory activity against human rhinovirus infection and replication (quantitative real-time PCR)). Settings: Human rhinovirus sp., MRC5; 100 nmol/L test compound; MRC-5 cells infected with HRV14 at MOI=0.2; 48 hours; viral load normalized to 18s rRNA; read-out: Percent Inhibition.
Assay type: cell-based
Procedure, shortened: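 Near-confluent MRC-5 cells were pretreated 30 min with compound at 100 or 1000 nmol/L, then infected with HRV14 (MOI 0.2) in compound-containing medium (2% FBS, 30 mmol/L MgCl2) and cultured 48 h at 35 °C. HRV14 RNA by qRT-PCR, normalized to 18S rRNA; percent inhibition versus untreated infected cells.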
With `COc1ccc(-c2c(C)nc3sc(C(C)(C)O)nn23)cc1S(=O)(=O)C1(C(C)(C)O)CC(F)(F)C1` [Example 2-67] the inhibition at 0.1 µM was over 80%. `COc1ccc(-c2c(C)nc3sc(C(C)(C)O)nn23)cc1S(=O)(=O)C(C)(C)C` [Example 2-34] showed an inhibition at 0.1 µM of over 80%. For `COc1ccc(-c2c(C)nc3sc(C(O)(C4CC4)C4CC4)nn23)cc1S(=O)(=O)C1CN(S(C)(=O)=O)C1` [Example 9-3], the inhibition at 0.1 µM was over 80%. In the case of `COc1ccc(-c2c(C)nc3sc(C(C)(C)O)nn23)cc1S(=O)(=O)Nc1ccc(O)cc1` [Example 2-86], the inhibition at 0.1 µM is reported as over 80%. With `COc1ccc(-c2c(C)nc3sc(C)cn23)cc1S(=O)(=O)Nc1ccc(F)cc1` [Example 1-51] the inhibition at 0.1 µM was 50 to 80%. For `CNC(=O)C(C)(C)S(=O)(=O)c1cc(-c2c(C)nc3sc(C(C)(C)O)nn23)ccc1OC` [Example 8-1], the inhibition at 0.1 µM was 50 to 80%. `COc1ccc(-c2c(C)nc3sc(C(C)(C)O)nn23)cc1S(=O)(=O)[C@H]1CC[C@](C)(O)CC1` [Example 15-2] showed an inhibition at 0.1 µM of 50 to 80%. `COc1ccc(-c2c(C)nc3sc(C(C)(C)O)nn23)cc1S(=O)(=O)NCC(C)(C)O` [Example 21-7] gave an inhibition at 0.1 µM of 50 to 80%. `COc1ccc(-c2c(C)nc3sc(C(C)C)cn23)cc1S(=O)(=O)N[C@H]1CC[C@@H](O)CC1` [Example 1-46] gave an inhibition at 0.1 µM of over 80%. `COc1ccc(-c2c(C)nc3sc(C(C)(C)O)nn23)cc1S(=O)(=O)CCO` [Example 2-12] was tested, and the inhibition at 0.1 µM was at most 50%. In the case of `Cc1nc2sc(C(C)(C)O)cn2c1-c1ccc(N(C)C)c(S(=O)(=O)N[C@H]2CC[C@@H](O)CC2)c1` [Example 2-5], the inhibition at 0.1 µM is reported as at most 50%. `COc1ccc(-c2c(C)nc3sc(C(C)(C)O)nn23)cc1S(=O)(=O)N[C@H]1C[C@@H](O)C1` [Example 21-10] was tested, and the inhibition at 0.1 µM was at most 50%. With `COc1ccc(-c2c(C)nc3sc(C(C)(C)O)nn23)cc1S(=O)(=O)[C@H]1C[C@H](O)C1` [Example 2-56] the inhibition at 0.1 µM was at most 50%. Molecule `COc1ccc(-c2c(C)nc3sc(C(C)(C)O)nn23)cc1S(=O)(=O)[C@H]1C[C@@H]1C(C)(C)O` [Example 2-78] has an inhibition at 0.1 µM of at most 50%. With `Cc1nc2sc(C(C)(C)O)nn2c1-c1ccc(C(F)F)c(S(=O)(=O)CC(C)(C)O)c1` [Example 2-37] the inhibition at 0.1 µM was 50 to 80%. Work on `Cc1nc2sc(C(C)(C)O)nn2c1-c1ccc(C(F)(F)F)c(S(=O)(=O)CC2(C)COC2)c1` [Example 2-26] yielded an inhibition at 0.1 µM of over 80%. Work on `Cc1nc2sc(C(C)(C)O)nn2c1-c1ccc(C(F)(F)F)c(S(=O)(=O)C(C)(C)CO)c1` [Example 4-3] yielded an inhibition at 0.1 µM of over 80%. Work on `COc1ccc(-c2c(C)nc3sc(C4(OC)CC4)cn23)cc1S(=O)(=O)N[C@H]1CC[C@@H](O)CC1` [Example 1-47] yielded an inhibition at 0.1 µM of 50 to 80%. For `[2H]C([2H])([2H])Oc1ccc(-c2c(C)nc3sc(C(C)(C)O)nn23)cc1S(=O)(=O)CC(C)(C)O` [Example 2-58], the inhibition at 0.1 µM was 50 to 80%. With `COc1ccc(-c2c(C)nc3sc(C(C)(C)O)nn23)cc1S(=O)(=O)[C@H]1C[C@@](C)(C(C)(C)O)C1` [Example 2-74] the inhibition at 0.1 µM was at most 50%. In the case of `COc1ccc(-c2c(C)nc3sc(C(O)(C4CC4)C4CC4)nn23)cc1S(=O)(=O)C1CN(C(C)=O)C1` [Example 10-3], the inhibition at 0.1 µM is reported as over 80%. `COc1ccc(-c2c(C)nc3sc(C(C)C)nn23)cc1S(=O)(=O)N[C@H]1CC[C@@H](O)CC1` [Example 1-6] gave an inhibition at 0.1 µM of over 80%. Work on `Cc1nc2sc(C3CC3)cn2c1-c1ccc(Cl)c(S(=O)(=O)N[C@H]2CC[C@@H](O)CC2)c1` [Example 1-5] yielded an inhibition at 0.1 µM of 50 to 80%. For `Cc1nc2sc(C(C)(C)O)nn2c1-c1ccc(C(F)(F)F)c(S(=O)(=O)CC2CC(O)C2)c1` (centres unmarked) [Example 2-23], the inhibition at 0.1 µM was 50 to 80%. In the case of `COc1ccc(-c2c(C)nc3sc(C(C)(C)O)cn23)cc1S(=O)(=O)Nc1cccc(O)c1` [Example 2-80], the inhibition at 0.1 µM is reported as at most 50%. `COc1ccc(-c2c(C)nc3sc(C(C)(C)O)nn23)cc1S(=O)(=O)CC(C)(C)CO` [Example 2-50] was tested, and the inhibition at 0.1 µM was at most 50%. `Cc1nc2sc(C(C)(C)O)cn2c1-c1ccc(C(F)(F)F)c(S(=O)(=O)N[C@H]2CC[C@@H](O)CC2)c1` [Example 1-19] was tested, and the inhibition at 0.1 µM was over 80%. In the case of `COc1ccc(-c2c(C)nc3sc(C(C)(C)O)nn23)cc1S(=O)(=O)[C@H]1C[C@](C)(C(C)(C)O)C1` [Example 2-73], the inhibition at 0.1 µM is reported as over 80%. `Cc1nc2sc(C(C)(C)O)nn2c1-c1ccc(C(F)(F)F)c(S(=O)(=O)N[C@H]2C[C@H](O)C2)c1` [Example 2-16] gave an inhibition at 0.1 µM of over 80%. For `Cc1nc2sc(C(C)(C)O)nn2c1-c1ccc(C(F)(F)F)c(S(=O)(=O)N(C)[C@H]2CC[C@H](O)CC2)c1` [Example 2-9], the inhibition at 0.1 µM was over 80%. `COc1ccc(-c2c(C)nc3sc(C(C)(C)O)nn23)cc1S(=O)(=O)C1CC(F)(F)C1` [Example 2-69] gave an inhibition at 0.1 µM of 50 to 80%. In the case of `COc1ccc(-c2c(C)nc3sc(C(C)(C)O)nn23)cc1S(=O)(=O)[C@H]1CC[C@@](C)(O)CC1` [Example 15-1], the inhibition at 0.1 µM is reported as at most 50%. In the case of `COc1ccc(-c2c(C)nc3sc(C(C)(C)O)nn23)cc1S(=O)(=O)Cc1ccncc1` [Example 2-95], the inhibition at 0.1 µM is reported as 50 to 80%. In the case of `Cc1nc2sc(C(C)(C)O)cn2c1-c1ccc(OC(F)(F)F)c(S(=O)(=O)N[C@H]2CC[C@@H](O)CC2)c1` [Example 1-3], the inhibition at 0.1 µM is reported as at most 50%. With `COc1ccc(-c2c(C)nc3sc(C4(C(F)(F)F)CC4)nn23)cc1S(=O)(=O)N[C@H]1CC[C@@H](O)CC1` [Example 1-31] the inhibition at 0.1 µM was over 80%. `Cc1nc2sc(C(C)(C)OC3COC3)cn2c1-c1ccc(Cl)c(S(=O)(=O)N[C@H]2CC[C@@H](O)CC2)c1` [Example 1-8] showed an inhibition at 0.1 µM of 50 to 80%. `Cc1nc2sc(C(C)(C)C)nn2c1-c1ccc(C(F)(F)F)c(S(=O)(=O)N[C@H]2CC[C@H](O)CC2)c1` [Example 1-32] was tested, and the inhibition at 0.1 µM was over 80%. `COc1ccc(-c2c(C)nc3sc(C(C)(C)O)nn23)cc1S(=O)(=O)[C@]1(C2CC2)C[C@H](O)C1` [Example 2-72] gave an inhibition at 0.1 µM of at most 50%. `CCOc1ccc(-c2c(C)nc3sc(C(C)(C)O)nn23)cc1S(=O)(=O)CC(C)(C)O` [Example 2-57] was tested, and the inhibition at 0.1 µM was 50 to 80%. Molecule `Cc1nc2sc(C(C)(C)O)nn2c1-c1ccc(C(F)(F)F)c(S(=O)(=O)NC2(C(C)(C)O)CC2)c1` [Example 3-2] has an inhibition at 0.1 µM of over 80%. `Cc1nc2sc(C(C)(C)O)nn2c1-c1ccc(C(F)(F)F)c(S(=O)(=O)C2CN(CCO)C2)c1` [Example 12-2] showed an inhibition at 0.1 µM of 50 to 80%. For `Cc1nc2sc(C(C)(C)O)nn2c1-c1ccc(C(F)(F)F)c(S(=O)(=O)C2CN(C)C2)c1` [Example 12-1], the inhibition at 0.1 µM was 50 to 80%. With `Cc1nc2sc(C(C)(C)O)cn2c1-c1ccc(Cl)c(S(=O)(=O)N[C@H]2CC[C@@H](O)CC2)c1` [Example 1-2] the inhibition at 0.1 µM was at most 50%. For `COc1ccc(-c2c(C)nc3sc(C(O)(C4CC4)C4CC4)nn23)cc1S(=O)(=O)[C@H]1C[C@](C)(O)C1` [Example 2-82], the inhibition at 0.1 µM was over 80%. `Cc1nc2sc(C(C)(C)O)nn2c1-c1ccc(C(F)(F)F)c(S(=O)(=O)CC(C)(C)O)c1` [Example 2-27] gave an inhibition at 0.1 µM of over 80%. For `[2H]C([2H])([2H])Oc1ccc(-c2c(C)nc3sc(C4CC4)nn23)cc1S(=O)(=O)NC(C)(C)CO` [Example 2-90], the inhibition at 0.1 µM was over 80%. Molecule `COc1ccc(-c2c(C)nc3sc(C(C)(C)O)nn23)cc1S(=O)(=O)CC1(O)CCC(F)(F)CC1` [Example 2-64] has an inhibition at 0.1 µM of over 80%. With `COc1ccc(-c2c(C)nc3sc(C(C)(C)O)nn23)cc1S(=O)(=O)CCC(C)(C)O` [Example 2-42] the inhibition at 0.1 µM was at most 50%. Molecule `COc1ccc(-c2c(C)nc3sc(C(C)(C)O)nn23)cc1S(=O)(=O)[C@H]1C[C@@H](O)C1` [Example 2-54] has an inhibition at 0.1 µM of at most 50%. `Cc1nc2sc(C(C)(C)O)nn2c1-c1ccc(C(F)(F)F)c(S(=O)(=O)CCO)c1` [Example 2-14] was tested, and the inhibition at 0.1 µM was at most 50%. `COC(=O)C(C)(C)c1nn2c(-c3cnc(OC)c(S(=O)(=O)N[C@H]4CC[C@@H](O)CC4)c3)c(C)nc2s1` [Example 1-23] showed an inhibition at 0.1 µM of over 80%. `COc1ccc(-c2c(C)nc3sc(C(C)(C)C)cn23)cc1S(=O)(=O)N[C@H]1CC[C@@H](O)CC1` [Example 1-49] gave an inhibition at 0.1 µM of over 80%. With `COc1ccc(-c2c(C)nc3sc(C(OC)(C(F)(F)F)C(F)(F)F)cn23)cc1S(=O)(=O)N[C@H]1CC[C@@H](O)CC1` [Example 1-12] the inhibition at 0.1 µM was over 80%. For `Cc1nc2sc(C(C)(C)O)nn2c1-c1ccc(C(F)(F)F)c(S(=O)(=O)N[C@]2(C)C[C@@H](O)C2)c1` [Example 2-18], the inhibition at 0.1 µM was over 80%. Molecule `COc1ccc(-c2c(C)nc3sc(C(C)(C)O)cn23)cc1S(=O)(=O)C[C@H]1CC[C@@H](O)CC1` [Example 1-27] has an inhibition at 0.1 µM of at most 50%. In the case of `COc1ccc(-c2c(C)nc3sc(C(C)(C)O)nn23)cc1S(=O)(=O)C1(C(C)(C)O)CC1` [Example 2-66], the inhibition at 0.1 µM is reported as over 80%. `COc1ccc(-c2c(C)nc3sc(C(C)(C)O)nn23)cc1S(=O)(=O)Nc1ccc(C(C)(C)O)cc1` [Example 3-3] showed an inhibition at 0.1 µM of at most 50%. In the case of `COc1ccc(-c2c(C)nc3sc(C(C)(C)O)nn23)cc1S(=O)(=O)NC1(C(C)(C)O)CC1` [Example 23], the inhibition at 0.1 µM is reported as over 80%. For `COc1ccc(-c2c(C)nc3sc(C4(OC)CCCC4)cn23)cc1S(=O)(=O)N[C@H]1CC[C@@H](O)CC1` [Example 1-45], the inhibition at 0.1 µM was over 80%. Molecule `COc1ccc(-c2c(C)nc3sc(C(C)(C)O)nn23)cc1S(=O)(=O)CC(C)(C)O` [Example 1-38] has an inhibition at 0.1 µM of over 80%. In the case of `Cc1nc2sc(C(C)(C)O)nn2c1-c1ccc(C(F)(F)F)c(S(=O)(=O)C2CC(F)(F)C2)c1` [Example 2-44], the inhibition at 0.1 µM is reported as over 80%. Work on `COc1ccc(-c2c(C)nc3sc(C(C)(C)O)nn23)cc1S(=O)(=O)N[C@H]1C[C@H](CO)C1` [Example 21-5] yielded an inhibition at 0.1 µM of at most 50%. Work on `Cc1nc2sc(C3CC3)nn2c1-c1ccc(C(F)(F)F)c(S(=O)(=O)N[C@H]2CC[C@H](O)CC2)c1` [Example 1-30] yielded an inhibition at 0.1 µM of over 80%. For `COc1ccc(-c2c(C)nc3sc(C(C)(C)O)nn23)cc1S(=O)(=O)NC[C@H]1C[C@H](O)C1` [Example 21-6], the inhibition at 0.1 µM was at most 50%. In the case of `Cc1nc2sc(C(C)(C)O)nn2c1-c1ccc(C(F)(F)F)c(S(=O)(=O)NC2(CO)CC(F)(F)C2)c1` [Example 2-32], the inhibition at 0.1 µM is reported as over 80%.
